EC50 and IC50 data for 40 compounds are collected here from patent publication US20090221559A1 (priority 2005, published 2009).

Where two headings read alike, the source gives them in different places. Bounds are passed on as bounds.

Assay [1] relates to HCV replicon RNA replication in Huh-7 luc/neo (Huh-Luc) cells. As to the kind of experiment: HCV replicon assay (stable replicon cell reporter assay, luciferase read-out). The assay is classed as cell-based, HCV type 1b. In outline:
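Huh-7 cells stably carry a bicistronic HCV 1b NS3-NS5B subgenomic replicon with firefly luciferase and neo markers. Cells were plated with compound across a concentration range and incubated three days. Replication was measured as luciferase activity to give dose-response curves.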
A general note: Replicon systems follow genome replication, usually without infectious particles.

For assay [2], the target named is T1, HCV NS5B polymerase (His-tagged, C-terminal 21 amino acid deleted NS5B, HC-J4) (Hepatitis C virus genotype 1b, UniProt O92972).
T1 construct: The cDNA encoding NS5B amino acid 1-570 (HC-J4, genotype 1b); His tag (His6, from pET-21b) (C); made in house; host or cells: E. coli BL21 (DE3)
As to the kind of experiment: NS5b polymerase assay (biochemical RdRp assay, 3H-GTP incorporation, SPA beads). Details: species or system HCV genotype 1b. The method, boiled down: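 His-tagged C-terminal-21-aa-deleted NS5B (genotype 1b, HC-J4) at 200 nM was preincubated 15 min at RT with compound on 5′-biotinylated oligo(rG13)/poly(rC) template/primer before NTPs. Reaction with 600 nM GTP plus 0.1 μCi 3H-GTP and 5 mM MgCl2 in Tris pH 7.5 ran 2 h at 25 °C. Stopped with EDTA/SPA beads for incorporation counting.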

[3] abbreviates: Hepatitis C virus, Huh-7, 72 h, read-out: Replicon Assay EC50 (μM), Huh-Luc cells, incubation of three days, luciferase activity.
The mark [4] stands for this setting: NS5B Polymerase Assay IC50 (μM).
The mark [5] stands for this setting: Huh-Luc cells, three days incubation, luciferase activity, read-out: Replicon Assay EC50.
Where [6] appears, read: 200 nM enzyme, 3H-GTP incorporation, 2 h at 25° C., read-out: NS5B Polymerase Assay IC50.
Setting [7] is: Hepatitis C virus, Huh-7, 72 h, read-out: Replicon Assay EC50, Huh-Luc cells, three days incubation, luciferase activity.
Setting [8] is: NS5B Polymerase Assay IC50, 200 nM enzyme, 3H-GTP incorporation, 2 h at 25° C.

T1 sequence (O92972 2417-3000, looked up, stated change not applied): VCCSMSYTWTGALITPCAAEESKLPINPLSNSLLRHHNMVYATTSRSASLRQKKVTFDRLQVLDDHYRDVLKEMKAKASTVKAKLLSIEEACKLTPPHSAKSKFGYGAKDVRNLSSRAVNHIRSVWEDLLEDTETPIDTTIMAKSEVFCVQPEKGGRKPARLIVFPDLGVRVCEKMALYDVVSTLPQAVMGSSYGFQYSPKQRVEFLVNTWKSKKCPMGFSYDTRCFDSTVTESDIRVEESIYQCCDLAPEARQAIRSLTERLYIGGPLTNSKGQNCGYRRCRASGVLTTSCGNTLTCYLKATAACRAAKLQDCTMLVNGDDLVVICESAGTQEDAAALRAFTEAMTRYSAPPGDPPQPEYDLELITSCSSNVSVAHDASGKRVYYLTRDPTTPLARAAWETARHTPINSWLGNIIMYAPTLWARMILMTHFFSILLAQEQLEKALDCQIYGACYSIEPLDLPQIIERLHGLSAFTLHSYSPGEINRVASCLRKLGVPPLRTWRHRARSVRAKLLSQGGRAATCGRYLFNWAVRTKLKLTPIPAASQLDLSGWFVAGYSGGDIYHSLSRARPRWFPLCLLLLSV

As a reminder, the EC50 is the concentration needed to bring the measured effect to its halfway point. One may read the IC50 as the concentration that inhibits the measured activity by half. `O=C1CC(c2ccccc2OCc2ccccc2)CC2=C1C(c1cccc(OCc3ccccc3)c1)Nc1ccccc1N2` (single isomer, unassigned) [compound 420, 3-(2-Benzyloxyphenyl)-11-(3-benzyloxyphenyl)-2,3,4,5,10,11-hexahydro-dibenzo[b,e][1,4]diazepin-1-one]: the EC50 in assay [1] (setting [3]) came to 3.23 µM. For the same compound, in assay [2] (setting [4]), the IC50 was above 42.7 µM.
On to `CCn1c2ccccc2c2cc([C@@H]3Nc4ccccc4NC4=C3C(=O)C[C@@H](c3ccc(OC)c(OC)c3)C4)ccc21` [compound 477], for which the EC50 in assay [1] (setting [3]) came out at 4.49 µM. Besides, in assay [2] (setting [4]), the IC50 was above 42.7 µM.
For the compound `COc1ccc(C2CC(=O)C3=C(C2)Nc2ccccc2N(C(=O)c2ccccc2)C3c2ccc(C)cc2)cc1` (mixture of isomers) [compound 206], in assay [1] (setting [5]), the EC50 worked out at 10.9 µM. For the same compound, in assay [2] (setting [6]), the IC50 was above 33.3 µM.
Turning to `O=C1C[C@@H](c2ccc(Cl)cc2)CC2=C1[C@H](c1c[nH]c3ccccc13)Nc1ccccc1N2` [compound 482], the EC50 in assay [1] (setting [3]) was 27 µM. In addition, the IC50 in assay [2] (setting [4]) is above 42.7 µM.
In the case of `COc1ccc(C2C3=C(CC(C)(C)CC3=O)Nc3ccccc3N2C(C)=O)cc1OCc1ccccc1` (centres unmarked) [compound 48], in assay [1] (setting [5]), the EC50 turned out to be 16.7 µM. In assay [2] (setting [6]), the IC50 turned out to be 15.9 µM.
Consider `CC(=O)N1c2ccccc2NC2=C(C(=O)CC(C)(C)C2)C1c1ccc(O)cc1` (centres unmarked) [compound 137, 10-acetyl-11-(4-hydroxyphenyl)-3,3-dimethyl-2,3,4,5,10,11-hexahydro-1H-dibenzo[b,e][1,4]diazepin-1-one], for which the EC50 in assay [1] (setting [7]) was above 100 µM. For the same compound, the IC50 in assay [2] (setting [8]) is above 133 µM.
The like results for `CCCCOc1cccc2c1NC1=C(C(=O)CC(C)(C)C1)C(c1ccc(Cl)cc1Cl)N2C(C)=O` (centres unmarked) [compound 317] were, in that order, 5.75 µM and above 133 µM.
The matching figures for `CC1(C)CC(=O)C2=C(C1)Nc1ccccc1N(C(=O)Cc1ccccc1)C2c1cc2c(cc1Br)OCO2` (centres unmarked) [compound 268]: 9.04 µM and above 42.7 µM.
`O=C1CC(c2ccccc2OCc2ccccc2)CC2=C1C(C(Br)=Cc1ccccc1)Nc1ccccc1N2` (mixture of isomers) [compound 498]: the EC50 in assay [1] (Huh-Luc cells, incubation of three days, luciferase activity, read-out: Replicon Assay EC50) amounted to 2.92 µM. For the same compound, the IC50 in assay [2] (read-out: NS5B Polymerase Assay IC50) was above 133 µM.
Take `COc1cccc(C2Nc3ccccc3NC3=C2C(=O)CC(c2ccc(Cl)cc2)C3)c1` (centres unmarked) [compound 360]: the EC50 in assay [1] (setting [3]) was 11.2 µM. In assay [2] (setting [4]), the IC50 is above 42.7 µM.
`O=C1C[C@@H](c2ccccc2OCc2ccccc2)CC2=C1C(c1cccc(OC(=O)c3ccc(Cl)cc3)c1)Nc1ccccc1N2` (single isomer, unassigned) [compound 512, 11-[3-(4-Chlorobenzoyloxy)phenyl]-3-(2-benzyloxyphenyl)-2,3,4,5,10,11-hexahydro-dibenzo[b,e][1,4]diazepin-1-one]: the half-maximal effective concentration (EC50) in assay [1] (setting [3]) came to 8.42 µM. Also, 84.5 µM corresponded to half-maximal inhibition in assay [2] (setting [4]) (IC50).
In the case of `CC(C)C(=O)N1c2ccccc2NC2=C(C(=O)CC(C)(C)C2)C1c1cccnc1` (centres unmarked) [compound 259], the EC50 in assay [1] (setting [7]) is above 33 µM. In addition, in assay [2] (setting [8]), half-maximal inhibition (IC50) required 29.5 µM.
With `CC1(C)CC(=O)C2=C(C1)Nc1ccccc1N(C(=O)C(F)(F)F)C2c1ccc(-c2ccc(Br)cc2)o1` (centres unmarked) [compound 278], the EC50 in assay [1] (setting [7]) was 13.3 µM. Besides, the IC50 in assay [2] (setting [8]) is above 42.7 µM.
The matching figures for `COc1cccc(C2C3=C(CC(C)(C)CC3=O)Nc3ccccc3N2C(=O)Cc2ccccc2)c1` (centres unmarked) [compound 82]: 6.8 µM and above 42.7 µM.
As for `COc1ccc(C2C3=C(CC(c4ccc(C)cc4)CC3=O)Nc3ccccc3N2C(=O)c2ccccc2)cc1` (mixture of isomers) [compound 188], the EC50 in assay [1] (setting [5]) came out at 5.16 µM. For the same compound, the IC50 in assay [2] (setting [6]) was above 33.3 µM.
The matching figures for `CCOc1ccccc1C1C2=C(CC(c3ccc(OC)cc3)CC2=O)Nc2ccccc2N1C(C)=O` (centres unmarked) [compound 179]: 8.54 µM and above 42.7 µM.
Regarding `COc1ccc([C@@H]2CC(=O)C3=C(C2)Nc2ccccc2N[C@H]3c2c[nH]c3ccccc23)cc1` [compound 489], the EC50 in assay [1] (setting [3]) worked out at 5.91 µM. The same compound returned an IC50 in assay [2] (setting [4]) above 42.7 µM.
For `CC1(C)CC(=O)C2=C(C1)Nc1ccccc1N(C(=O)c1ccc(F)cc1)C2c1ccc(Br)cc1` (centres unmarked) [compound 113], the EC50 in assay [1] (setting [7]) was above 32 µM. In addition, in assay [2] (setting [8]), the IC50 was above 42.7 µM.
Take `CC1(C)CC(=O)C2=C(C1)Nc1ccccc1N(C(=O)c1ccccc1)C2c1c(F)cccc1Cl` (centres unmarked) [compound 37]: in assay [1] (setting [7]), the EC50 was found to be 6.93 µM. The same compound registered an IC50 in assay [2] (setting [8]) above 42.7 µM.
For the compound `CC1(C)CC(=O)C2=C(C1)Nc1cc(F)c(F)cc1NC2c1ccc(Cl)cc1Cl` (centres unmarked) [compound 466, 7,8-difluoro-11-(2,4-dichlorophenyl)-3,3-dimethyl-2,3,4,5,10,11-hexahydro-1H-dibenzo[b,e][1,4]diazepin-1-one], the EC50 in assay [1] (setting [3]) came out at 6.81 µM. Moreover, the IC50 in assay [2] (setting [4]) stood at 68.1 µM.
For the compound `CC(=O)N1c2ccccc2NC2=C(C(=O)CC(C)(C)C2)[C@@H]1c1ccc(OCc2ccccc2)cc1Cl` (single isomer, unassigned) [compound 306], in assay [1] (setting [7]), the EC50 is 3.92 µM. This compound returned an IC50 in assay [2] (setting [8]) of 83.1 µM.
The like results for `CCOc1cc(C2C3=C(CC(C)(C)CC3=O)Nc3ccccc3N2C(C)=O)ccc1O` (centres unmarked) [compound 121] were, in that order, above 32 µM and above 42.7 µM.
As for `CC1(C)CC(=O)C2=C(C1)Nc1ccccc1N(C(=O)C(F)(F)F)C2c1ccc([N+](=O)[O-])cc1` (centres unmarked) [compound 89], in assay [1] (setting [7]), the EC50 turned out to be 5.32 µM. In addition, the IC50 in assay [2] (setting [8]) is above 42.7 µM.
For the compound `CCCCCC(=O)N1c2ccccc2NC2=C(C(=O)CC(c3ccc(Cl)cc3)C2)C1c1ccc(Cl)cc1` (centres unmarked) [compound 164], in assay [1] (setting [7]), the EC50 was 18.5 µM. This compound also showed an IC50 in assay [2] (setting [8]) above 33.3 µM.
Regarding `CC1(C)CC(=O)C2=C(C1)Nc1ccccc1NC2c1cccc(Oc2ccccc2)c1` (centres unmarked) [compound 433, 11-(3-phenoxyphenyl)-3,3-dimethyl-2,3,4,5,10,11-hexahydro-1H-dibenzo[b,e][1,4]diazepin-1-one], in assay [1] (setting [3]), the EC50 came to 3.81 µM. Also, the IC50 in assay [2] (setting [4]) is above 133 µM.
Turning to `O=C1CCCC2=C1C(c1ccc(Cl)cc1Cl)Nc1ccccc1N2` (centres unmarked) [compound 421], the EC50 in assay [1] (setting [3]) worked out at 51.9 µM. The same compound returned an IC50 in assay [2] (setting [4]) above 133 µM.
Turning to `COc1ccc([C@@H]2CC(=O)C3=C(C2)Nc2ccccc2N[C@H]3c2ccc3c(c2)OCO3)cc1OC` [compound 494], the EC50 in assay [1] (setting [3]) is 21.7 µM. The compound also came in with an IC50 in assay [2] (setting [4]) above 42.7 µM.
The like results for `CCOc1ccc(C2Nc3ccccc3NC3=C2C(=O)CC(c2ccc(OC)cc2)C3)cc1` (centres unmarked) [compound 332] were, in that order, 9.74 µM and above 42.7 µM.
Turning to `COc1ccc(C2CC(=O)C3=C(C2)Nc2ccccc2N(C(=O)c2ccccc2)C3c2ccc(Cl)cc2)cc1OC` (mixture of isomers) [compound 218], the EC50 in assay [1] (setting [5]) stood at 14.8 µM. Moreover, the IC50 in assay [2] (setting [6]) was above 33.3 µM.
As for `CC1(C)CC(=O)C2=C(C1)Nc1ccccc1N(C(=O)Cc1ccc(Cl)cc1)C2c1cccs1` (centres unmarked) [compound 245], the EC50 in assay [1] (setting [7]) amounted to 3.51 µM. Moreover, the IC50 in assay [2] (setting [8]) was above 42.6 µM.
The like results for `CC(=O)N1c2ccccc2NC2=C(C(=O)CC(C)(C)C2)C1c1ccc(C)o1` (centres unmarked) [compound 283] were, in that order, above 32 µM and above 42.7 µM.
The matching figures for `CC1(C)CC(=O)C2=C(C1)Nc1ccccc1N(C(=O)Cc1ccccc1)C2c1cccc(Cl)c1` (centres unmarked) [compound 31]: 6.36 µM and above 42.7 µM.
The matching figures for `CC(=O)N1c2ccccc2NC2=C(C(=O)CC(C)(C)C2)[C@@H]1c1ccc(OCc2ccccc2)cc1` (single isomer, unassigned) [compound 302]: 1.87 µM and 92.5 µM.
In the case of `Cc1ccc(C2Nc3ccccc3NC3=C2C(=O)CC(c2ccccc2)C3)cc1[N+](=O)[O-]` (centres unmarked) [compound 358], the EC50 in assay [1] (setting [3]) worked out at 20.4 µM. For the same compound, the IC50 in assay [2] (setting [4]) was above 42.7 µM.
On to `O=C1CC(c2ccco2)CC2=C1C(c1ccc(Cl)cc1)Nc1ccccc1N2` (centres unmarked) [compound 413], for which the EC50 in assay [1] (setting [3]) stood at 12 µM. In assay [2] (setting [4]), this compound showed an IC50 above 33.3 µM.
As to `COc1cccc(C2C3=C(CC(C)(C)CC3=O)Nc3ccccc3N2C(=O)Cc2ccc(Cl)cc2)c1` (centres unmarked) [compound 34], the EC50 in assay [1] (setting [7]) came to 6.81 µM. In assay [2] (setting [8]), this compound displayed an IC50 above 42.7 µM.
Regarding `COc1ccc(OC)c(C2C3=C(CC(C)(C)CC3=O)Nc3ccccc3N2C(=O)c2ccccc2)c1` (centres unmarked) [compound 72], the EC50 in assay [1] (setting [7]) was determined as 23.6 µM. For the same compound, the IC50 in assay [2] (setting [8]) was above 42.7 µM.
Take `COc1c(Cl)cc(Cl)cc1C1C2=C(CC(C)(C)CC2=O)Nc2ccccc2N1C(=O)Cc1ccccc1` (centres unmarked) [compound 15]: in assay [1] (setting [7]), the EC50 amounted to 3.09 µM. Also, the IC50 in assay [2] (setting [8]) is above 42.7 µM.
Turning to `CCOc1ccccc1C1C2=C(CC(c3ccc(OC)cc3)CC2=O)Nc2ccccc2N1C(=O)C(F)(F)F` (mixture of isomers) [compound 216], the EC50 in assay [1] (setting [5]) is 25.3 µM. In assay [2] (setting [6]), the IC50 is above 42.7 µM.
For the compound `CC(=O)N1c2ccccc2NC2=C(C(=O)CC(c3ccccc3OCc3ccccc3)C2)C1c1cccc(OC(=O)c2ccc(Cl)cc2)c1` (single isomer, unassigned) [compound 191, 10-Acetyl-3-(2-benzyloxyphenyl)-11-[3-(4-chlorobenzoyloxy)phenyl]-2,3,4,5,10,11-hexahydro-dibenzo[b,e][1,4]diazepin-1-one], the EC50 in assay [1] (setting [7]) was found to be 2.88 µM. This compound came in with an IC50 in assay [2] (setting [8]) above 42.7 µM.
